Test system: MV-4-11 cells
Experiment: Gene expression microarray analysis (Affymetrix PrimeView) and GSEA
Assay type: cell-based, human
Design: RFU PODN (11730768_x_at) / Fold change /veh PODN (11730768_x_at) / RFU LINC00158 (11744669_a_at) / Fold change /veh LINC00158 (11744669_a_at) / RFU DUSP10 (11751237_a_at) / Fold change /veh DUSP10 (11751237_a_at) / RFU ID3 (11757404_x_at) / Fold change /veh ID3 (11757404_x_at) / RFU PLEKHG5 (11737974_s_at) / Fold change /veh PLEKHG5 (11737974_s_at) / RFU LRRC4B (11730491_at) / Fold change /veh LRRC4B (11730491_at) / RFU GIMAP4 (11747438_a_at) / Fold change /veh GIMAP4 (11747438_a_at) / RFU KRT8 (11758183_x_at) / Fold change /veh KRT8 (11758183_x_at) / RFU CNN1 (11734310_a_at) / Fold change /veh CNN1 (11734310_a_at) / RFU VPS37D (11726825_at) / Fold change /veh VPS37D (11726825_at) / RFU C10orf10 (11716522_x_at) / Fold change /veh C10orf10 (11716522_x_at) / RFU KIR2DL2 /// KIR2DL4 /// KIR2DL5A /// KIR2DL5B /// KIR2DS1 /// KIR2DS2 /// KIR2DS3 /// KIR2DS4 /// KIR3DL3 /// KIR3DL3 /// KIR3DS1 (11738374_at) / Fold change /veh KIR2DL2 /// KIR2DL4 /// KIR2DL5A /// KIR2DL5B /// KIR2DS1 /// KIR2DS2 /// KIR2DS3 /// KIR2DS4 /// KIR3DL3 /// KIR3DL3 /// KIR3DS1 (11738374_at) / RFU C1QL1 (11718748_at) / Fold change /veh C1QL1 (11718748_at) / RFU TMPRSS4 (11747572_a_at) / Fold change /veh TMPRSS4 (11747572_a_at) / RFU HAMP (11756126_x_at) / Fold change /veh HAMP (11756126_x_at) / RFU RNFT2 (11725882_a_at) / Fold change /veh RNFT2 (11725882_a_at) / RFU NR4A2 (11747474_a_at) / Fold change /veh NR4A2 (11747474_a_at) / RFU ABCC12 (11746883_a_at) / Fold change /veh ABCC12 (11746883_a_at) / RFU TMEM136 (11760407_x_at) / Fold change /veh TMEM136 (11760407_x_at) / RFU CLDN22 /// WWC2 (11732394_at) / Fold change /veh CLDN22 /// WWC2 (11732394_at) / RFU HLA-DPB1 (11760878_x_at) / Fold change /veh HLA-DPB1 (11760878_x_at) / RFU SPINT1 (11716480_a_at) / Fold change /veh SPINT1 (11716480_a_at) / RFU GAP43 (11754022_s_at) / Fold change /veh GAP43 (11754022_s_at) / RFU A4GNT (11735810_at) / Fold change /veh A4GNT (11735810_at) / RFU PRB3 (11715151_x_at) / Fold change /veh PRB3 (11715151_x_at) / RFU TUBB4B (11761932_at) / Fold change /veh TUBB4B (11761932_at) / RFU CAPN14 (11732068_a_at) / Fold change /veh CAPN14 (11732068_a_at) / RFU TMCC2 (11721928_a_at) / Fold change /veh TMCC2 (11721928_a_at) / RFU IRGQ (11745062_a_at) / Fold change /veh IRGQ (11745062_a_at) / RFU FAM174B (11720279_a_at) / Fold change /veh FAM174B (11720279_a_at) / RFU TMPRSS4 (11748680_a_at) / Fold change /veh TMPRSS4 (11748680_a_at) / RFU FAM212B (11763350_a_at) / Fold change /veh FAM212B (11763350_a_at) / RFU PLEKHG5 (11743358_a_at) / Fold change /veh PLEKHG5 (11743358_a_at) / RFU ZSCAN30 (11745921_a_at) / Fold change /veh ZSCAN30 (11745921_a_at) / RFU CMKLR1 (11741424_a_at) / Fold change /veh CMKLR1 (11741424_a_at) / RFU LOC101060620 /// MAPK8IP1 (11723275_at) / Fold change /veh LOC101060620 /// MAPK8IP1 (11723275_at) / RFU SPTSSB (11747773_x_at) / Fold change /veh SPTSSB (11747773_x_at) / RFU PRSS12 (11739890_at) / Fold change /veh PRSS12 (11739890_at) / RFU BIN1 (11741810_x_at) / Fold change /veh BIN1 (11741810_x_at) / RFU WNT11 (11732464_a_at) / Fold change /veh WNT11 (11732464_a_at) / RFU C10orf10 (11716521_a_at) / Fold change /veh C10orf10 (11716521_a_at) / RFU C5orf56 (11738089_at) / Fold change /veh C5orf56 (11738089_at) / RFU CYB561 (11721691_x_at) / Fold change /veh CYB561 (11721691_x_at) / RFU ANKRD19P (11752326_a_at) / Fold change /veh ANKRD19P (11752326_a_at) / RFU OR2T12 /// OR2T33 /// OR2T8 (11738714_s_at) / Fold change /veh OR2T12 /// OR2T33 /// OR2T8 (11738714_s_at) / RFU VCAN (11748164_a_at) / Fold change /veh VCAN (11748164_a_at) / RFU JSRP1 (11732532_at) / Fold change /veh JSRP1 (11732532_at) / RFU KRTAP10-11 (11738290_x_at) / Fold change /veh KRTAP10-11 (11738290_x_at) / RFU MYO3A (11730013_a_at) / Fold change /veh MYO3A (11730013_a_at) / RFU EBF3 (11725865_a_at) / Fold change /veh EBF3 (11725865_a_at) / RFU CAMK2N1 (11719241_x_at) / Fold change /veh CAMK2N1 (11719241_x_at) / RFU C5orf56 (11738088_a_at) / Fold change /veh C5orf56 (11738088_a_at) / RFU OLFML3 (11715873_a_at) / Fold change /veh OLFML3 (11715873_a_at) / RFU LOC100653217 /// NTM (11731650_a_at) / Fold change /veh LOC100653217 /// NTM (11731650_a_at) / RFU MAPK11 (11762145_a_at) / Fold change /veh MAPK11 (11762145_a_at) / RFU FIZ1 (11724087_x_at) / Fold change /veh FIZ1 (11724087_x_at) / RFU OASL (11726364_x_at) / Fold change /veh OASL (11726364_x_at) / RFU SOX15 (11748057_x_at) / Fold change /veh SOX15 (11748057_x_at) / RFU CD79A (11719716_a_at) / Fold change /veh CD79A (11719716_a_at) / RFU HIST1H1D (11736915_at) / Fold change /veh HIST1H1D (11736915_at) / RFU CASKIN2 (11723855_a_at) / Fold change /veh CASKIN2 (11723855_a_at) / RFU LOC730098 (11760151_x_at) / Fold change /veh LOC730098 (11760151_x_at) / RFU OR4N2 (11742367_at) / Fold change /veh OR4N2 (11742367_at) / RFU PRRT2 (11749266_a_at) / Fold change /veh PRRT2 (11749266_a_at) / RFU SNX32 (11753110_a_at) / Fold change /veh SNX32 (11753110_a_at) / RFU CDHR5 (11726645_a_at) / Fold change /veh CDHR5 (11726645_a_at) / RFU RCAN1 (11760418_a_at) / Fold change /veh RCAN1 (11760418_a_at) / RFU FAM167A (11723789_a_at) / Fold change /veh FAM167A (11723789_a_at) / RFU FAM26E (11764081_at) / Fold change /veh FAM26E (11764081_at) / RFU ISYNA1 (11749810_s_at) / Fold change /veh ISYNA1 (11749810_s_at) / RFU ACY1 (11761880_at) / Fold change /veh ACY1 (11761880_at) / RFU 11764098_at / Fold change /veh 11764098_at / RFU SAMD14 (11745864_x_at) / Fold change /veh SAMD14 (11745864_x_at) / RFU NPB (11741838_a_at) / Fold change /veh NPB (11741838_a_at) / RFU TMPRSS6 (11731388_a_at) / Fold change /veh TMPRSS6 (11731388_a_at) / RFU KRTAP10-2 (11738614_at) / Fold change /veh KRTAP10-2 (11738614_at) / RFU ARHGAP8 /// PRR5-ARHGAP8 (11727945_x_at) / Fold change /veh ARHGAP8 /// PRR5-ARHGAP8 (11727945_x_at) / RFU KRTAP5-7 /// NADSYN1 (11734609_at) / Fold change /veh KRTAP5-7 /// NADSYN1 (11734609_at) / RFU RASL12 (11751679_a_at) / Fold change /veh RASL12 (11751679_a_at) / RFU CDKN2B (11736163_a_at) / Fold change /veh CDKN2B (11736163_a_at) / RFU PRF1 (11729649_at) / Fold change /veh PRF1 (11729649_at) / RFU, ZNF638 /// ZNF638-IT1 / Fold change vs veh, ZNF638 /// ZNF638-IT1 / RFU, PANK3 / Fold change vs veh, PANK3 / RFU, SH3YL1 / Fold change vs veh, SH3YL1 / RFU, ZEB2 / Fold change vs veh, ZEB2 / RFU, NRIP1 / Fold change vs veh, NRIP1 / RFU, PTTG1IP / Fold change vs veh, PTTG1IP / RFU, CAPN2 / Fold change vs veh, CAPN2 / RFU, MED14 / Fold change vs veh, MED14 / RFU, SNORA58 / Fold change vs veh, SNORA58 / RFU, C1orf63 / Fold change vs veh, C1orf63 / RFU, LRRFIP1 / Fold change vs veh, LRRFIP1 / RFU, NDUFAF7 / Fold change vs veh, NDUFAF7 / RFU, SLC12A2 / Fold change vs veh, SLC12A2 / RFU, IBTK / Fold change vs veh, IBTK / RFU, ESF1 / Fold change vs veh, ESF1 / Fold change vs veh, TMEM50B / RFU, TAOK1 / Fold change vs veh, TAOK1 / RFU, ACBD3 / Fold change vs veh, ACBD3 / RFU, TMA16 / Fold change vs veh, TMA16 / RFU, RWDD3 / Fold change vs veh, RWDD3 / RFU, BCAT1 / Fold change vs veh, BCAT1 / RFU, EDEM3 / Fold change vs veh, EDEM3 / RFU, TMEM33 / Fold change vs veh, TMEM33 / RFU, WDR75 / Fold change vs veh, WDR75 / RFU, AHCTF1 / Fold change vs veh, AHCTF1 / RFU, TFRC / Fold change vs veh, TFRC / RFU, ZDHHC17 / Fold change vs veh, ZDHHC17 / RFU, NOM1 / Fold change vs veh, NOM1 / RFU, ARL8B / Fold change vs veh, ARL8B / RFU, ZBTB11 / Fold change vs veh, ZBTB11 / RFU, TAMM41 / Fold change vs veh, TAMM41 / RFU, KIAA1704 /// LOC100996395 / Fold change vs veh, KIAA1704 /// LOC100996395 / RFU, ING1 / Fold change vs veh, ING1 / RFU, TRMT61B / Fold change vs veh, TRMT61B / RFU, FUBP3 / Fold change vs veh, FUBP3 / RFU, TP53 / Fold change vs veh, TP53 / RFU, TNKS2 / Fold change vs veh, TNKS2 / RFU, ZFP14 / Fold change vs veh, ZFP14 / RFU, ACTR2 / Fold change vs veh, ACTR2 / RFU, PPP3R1 / Fold change vs veh, PPP3R1 / RFU, PIK3R1 / Fold change vs veh, PIK3R1 / RFU, HNRNPA1 / Fold change vs veh, HNRNPA1 / RFU, RNF170 / Fold change vs veh, RNF170 / RFU, ZNF28 / Fold change vs veh, ZNF28 / RFU, RNGTT / Fold change vs veh, RNGTT / RFU, OGT / Fold change vs veh, OGT / RFU, BRD1 / Fold change vs veh, BRD1 / RFU, MARS / Fold change vs veh, MARS / RFU, ZNF655 / Fold change vs veh, ZNF655 / RFU, FAHD1 / Fold change vs veh, FAHD1 / RFU, BDP1 / Fold change vs veh, BDP1 / RFU, LRRCC1 / Fold change vs veh, LRRCC1 / RFU, ARID1A / Fold change vs veh, ARID1A / RFU, ZNF146 / Fold change vs veh, ZNF146 / RFU, ZNF330 / Fold change vs veh, ZNF330 / RFU, GPN3 / Fold change vs veh, GPN3 / RFU, C9orf123 / Fold change vs veh, C9orf123 / RFU, N4BP2L2 / Fold change vs veh, N4BP2L2 / RFU, ARFIP1 / Fold change vs veh, ARFIP1 / RFU, FAM179B / Fold change vs veh, FAM179B / RFU, BCL10 / Fold change vs veh, BCL10 / RFU, UHRF1BP1L / Fold change vs veh, UHRF1BP1L / RFU, BET1 / Fold change vs veh, BET1 / RFU, CNOT2 / Fold change vs veh, CNOT2 / RFU, ZNF268 / Fold change vs veh, ZNF268 / Fold change vs veh, ZNF507 / RFU, DGCR2 / Fold change vs veh, DGCR2 / RFU, WDSUB1 / Fold change vs veh, WDSUB1 / Fold change vs veh, HSP90B1 /// MIR3652 / RFU, ADSS / Fold change vs veh, ADSS / RFU, GK / Fold change vs veh, GK / RFU, ZNF148 / Fold change vs veh, ZNF148 / RFU, TAF9 / Fold change vs veh, TAF9 / RFU, SLC1A5 / Fold change vs veh, SLC1A5 / RFU, SLMO2 / Fold change vs veh, SLMO2 / RFU, ABCC4 / Fold change vs veh, ABCC4 / RFU, LOC101060439 /// RAP1B / Fold change vs veh, LOC101060439 /// RAP1B / RFU, RFX7 / Fold change vs veh, RFX7 / RFU, GTPBP10 / Fold change vs veh, GTPBP10 / RFU, CNEP1R1 / Fold change vs veh, CNEP1R1 / RFU, BIVM-ERCC5 /// ERCC5 / Fold change vs veh, BIVM-ERCC5 /// ERCC5 / RFU, ILF3 / Fold change vs veh, ILF3 / RFU 11762660_at / Fold change /veh 11762660_at / RFU VCAN (11757783_s_at) / Fold change /veh VCAN (11757783_s_at) / RFU DDX43 (11728927_at) / Fold change /veh DDX43 (11728927_at) / RFU KRT8 (11758188_x_at) / Fold change /veh KRT8 (11758188_x_at) / RFU NKD1 (11759106_at) / Fold change /veh NKD1 (11759106_at) / RFU SRD5A1 (11742802_a_at) / Fold change /veh SRD5A1 (11742802_a_at) / RFU TPSAB1 /// TPSB2 (11721975_s_at) / Fold change /veh TPSAB1 /// TPSB2 (11721975_s_at) / RFU GSTM3 (11746129_a_at) / Fold change /veh GSTM3 (11746129_a_at) / RFU IL23R (11737362_x_at) / Fold change /veh IL23R (11737362_x_at) / RFU TMEM51 (11727254_a_at) / Fold change /veh TMEM51 (11727254_a_at) / RFU PIWIL2 (11732686_x_at) / Fold change /veh PIWIL2 (11732686_x_at) / RFU ORM1 (11744905_x_at) / Fold change /veh ORM1 (11744905_x_at) / RFU CCDC152 (11743942_at) / Fold change /veh CCDC152 (11743942_at) / RFU ECM1 (11717891_a_at) / Fold change /veh ECM1 (11717891_a_at) / RFU IL23R (11748794_a_at) / Fold change /veh IL23R (11748794_a_at) / RFU TNFAIP8L3 (11732012_x_at) / Fold change /veh TNFAIP8L3 (11732012_x_at) / RFU MBOAT4 (11741988_at) / Fold change /veh MBOAT4 (11741988_at) / RFU 11764193_at / Fold change /veh 11764193_at / RFU TMEM53 (11763286_at) / Fold change /veh TMEM53 (11763286_at) / RFU MAGEB2 (11727129_at) / Fold change /veh MAGEB2 (11727129_at) / RFU TMEM200A (11744735_a_at) / Fold change /veh TMEM200A (11744735_a_at) / RFU CCDC152 (11751479_a_at) / Fold change /veh CCDC152 (11751479_a_at) / RFU FAM211A (11726209_a_at) / Fold change /veh FAM211A (11726209_a_at) / RFU RGS16 (11746705_a_at) / Fold change /veh RGS16 (11746705_a_at) / RFU VCAN (11755009_s_at) / Fold change /veh VCAN (11755009_s_at) / RFU RHOB (11743442_s_at) / Fold change /veh RHOB (11743442_s_at) / RFU RGS16 (11720943_a_at) / Fold change /veh RGS16 (11720943_a_at) / RFU RGS16 (11720944_at) / Fold change /veh RGS16 (11720944_at) / RFU, VPS4B / Fold change vs veh, VPS4B / RFU, CREB1 / Fold change vs veh, CREB1 / RFU, DNAJC13 / Fold change vs veh, DNAJC13 / RFU, GNAQ / Fold change vs veh, GNAQ / RFU, CDK5R1 / Fold change vs veh, CDK5R1 / RFU, ZRANB3 / Fold change vs veh, ZRANB3 / RFU, CUL4A / Fold change vs veh, CUL4A / RFU, CCNY / Fold change vs veh, CCNY / RFU, UFL1 / Fold change vs veh, UFL1 / RFU, COG3 / Fold change vs veh, COG3 / RFU, DIAPH2 / Fold change vs veh, DIAPH2 / RFU, SKA2 / Fold change vs veh, SKA2 / RFU, AFF3 / Fold change vs veh, AFF3 / RFU, LMF1 / Fold change vs veh, LMF1 / RFU, IPO11 / Fold change vs veh, IPO11 / RFU, DFFB / Fold change vs veh, DFFB / RFU, FOXP1 / Fold change vs veh, FOXP1 / RFU, CARD8 / Fold change vs veh, CARD8 / RFU, STRN3 / Fold change vs veh, STRN3 / RFU, ADK / Fold change vs veh, ADK / RFU, RASSF2 / Fold change vs veh, RASSF2 / RFU, WIPF1 / Fold change vs veh, WIPF1 / RFU, LARP1B / Fold change vs veh, LARP1B / RFU, RASA1 / Fold change vs veh, RASA1 / RFU, RB1 / Fold change vs veh, RB1 / RFU, PPFIA1 / Fold change vs veh, PPFIA1 / RFU, MAT2A / Fold change vs veh, MAT2A / RFU, CCT5 / Fold change vs veh, CCT5 / RFU, WDR92 / Fold change vs veh, WDR92 / RFU, CUX1 / Fold change vs veh, CUX1 / RFU, TTC7A / Fold change vs veh, TTC7A / RFU, TMEM135 / Fold change vs veh, TMEM135 / RFU, DEPTOR / Fold change vs veh, DEPTOR / RFU, CPM / Fold change vs veh, CPM / RFU, DNAJB6 / Fold change vs veh, DNAJB6 / RFU, CACNA2D3 / Fold change vs veh, CACNA2D3 / RFU, DTX4 / Fold change vs veh, DTX4 / RFU, TFCP2 / Fold change vs veh, TFCP2 / RFU, GMCL1 /// GMCL1P1 / Fold change vs veh, GMCL1 /// GMCL1P1 / RFU, AEBP2 / Fold change vs veh, AEBP2 / RFU, SNHG1 /// SNORD22 /// SNORD25 /// SNORD26 /// SNORD27 /// SNORD28 /// SNORD29 /// SNORD31 / Fold change vs veh, SNHG1 /// SNORD22 /// SNORD25 /// SNORD26 /// SNORD27 /// SNORD28 /// SNORD29 /// SNORD31 / Fold change (Aza/veh), C12orf56 (ProbeSet 11735607_a_at) / Fold change (ACY-1035/veh), C12orf56 (ProbeSet 11735607_a_at) / Fold change (Aza/veh), FGFR1OP (ProbeSet 11751329_s_at) / Fold change (ACY-1035/veh), FGFR1OP (ProbeSet 11751329_s_at) / Fold change (Aza/veh), VPS36 (ProbeSet 11739960_a_at) / Fold change (ACY-1035/veh), VPS36 (ProbeSet 11739960_a_at) / RFU SYPL1 (11715823_x_at) / Fold change /veh SYPL1 (11715823_x_at) / RFU IGFBP7 (11715501_s_at) / Fold change /veh IGFBP7 (11715501_s_at) / RFU REEP3 (11722064_at) / Fold change /veh REEP3 (11722064_at) / RFU IGLL1 (11728026_x_at) / Fold change /veh IGLL1 (11728026_x_at): dose or concentration left out as unconfirmed
Conditions: MV-4-11 cells, 48 hours

SMILES: Nc1ncn([C@@H]2O[C@H](CO)[C@@H](O)[C@H]2O)c(=O)n1 [azacitidine]
- Fold change /veh TMPRSS6 (11731388_a_at): 1.02
